# Data reported in patent US8623865B2, “Acylpiperazinones and their use as pharmaceuticals” (Fab Parma S.A.S, priority 2009, dated 2014).
# Values joined by “and” are separate entries in the source; they are usually repeats but may differ in a detail not shown here. Identical values can stand only once. Like-named read-outs stand apart in the source and are kept apart here.
# How the values were obtained:
# [1] = molecular target: recombinant S. aureus FabI enzyme (Staphylococcus aureus (strain MRSA252), UniProt Q6GI75); test: In vitro inhibition of recombinant S. aureus FabI enzyme (fluorescence based assay); format: biochemical; details: 60 min pre-incubation
# Experimental: Compound inhibitory activity of FabI enzyme is measured in vitro by the IC50 determination using a fluorescence based assay.
# The protein FabI from S. aureus is prepared and purified using standard methods for recombinant protein expression after cloning of the gene in a prokaryotic expression vector.
# The biochemical activity of the FabI enzyme is assessed using the following method.
# The assay buffer “AB” contained 50 mM ADA (N-(2-acetamido)iminodiacetic acid monosodium salt) pH 6.5, 1 mM dithiothreitol, 0.006% Triton-X100 and 50 mM NaCl. The following components are added in a white polystyrene Costar plate (Ref 3912) up to a final volume of 55.5 μL: 1.5 μL DMSO or inhibitor dissolved in DMSO and 54 μL of a FabI/NADPH/NADP+ mixture in AB. After 60 min of pre-incubation at room temperature, the reaction is started by addition of 5 μL of trans-2-octenoyl N-acetylcysteamine thioester (t-o-NAC) to a final volume of 60.5 μL. This reaction mixture is then composed of 2 nM FabI, 40 μM NADPH (Sigma, N7505), 10 μM NADP+ (Sigma, N5755), 100 μM t-O-NAC and compound at defined concentration. Fluorescence intensity of NADPH (λex=360 nm, λem=520 nm) is measured immediately after t-O-NAC addition (T0), and approximately 50 min later (T50) by a Fluostar Optima (BMG) so as to achieve ±30% of NADPH conversion. Enzyme activity is calculated by first subtracting TO signal to T50 and then subtracting background signal (FabI=0). Percentages of inhibition are calculated against untreated samples (Inhibitor=0) and IC50 are fitted to a classical Langmuir equilibrium model using XLFIT (IDBS).
# [2] = test system: S. aureus CIP 54.146 (MSSA); test: MIC, broth microdilution, S. aureus CIP 54.146 (with and without 80% human serum); format: cell-based; details: Staphylococcus aureus
# Experimental: The compounds of the invention are useful antibacterial agents having a selective spectrum of activity in vitro against bacterial strains relying on FabI and related targets. […] The activity is presented as Minimum Inhibitory Concentration (MIC) expressed in μg/ml and was determined using broth microdilution or Agar dilution methods.
# (§1) Antibacterial activity was determined on MSSA CIP 54.146 provided by the Centre de Ressources Biologiques de l'Institut Pasteur. Antibacterial activity was also determined on MRSA (IHMA #510059) and MSSA (IHMA #555189).
# This protocol is compliant with Clinical Laboratory Standards Institute (CLSI) methodology as described in M7-A7 document of the CLSI. The compound to be tested is diluted according to a geometric series of reason 2 in pure DMSO. Dilutions are transferred in sterile polystyrene microplates, followed by mid-log phase bacteria in cation-adjusted Muller-Hinton broth (ca-MHB, Fluka, Reference 90922) with a final inoculum of 5×10^5 cfu/ml. Microplates are incubated overnight at 35° C. MIC is defined as the lowest concentration of antimicrobial agent that completely prevents visible bacterial growth. All manipulations, but compound handling (in pure DMSO), are performed under sterile conditions. The final concentration of DMSO in the plates is 2%.
# In order to evaluate the serum binding of test compounds, MICs were also measured in ca-MHB supplemented with 80% human serum (HS, Sigma, Reference H4522).
# [3] = test system: methicillin susceptible Staphylococcus aureus strain ATCC 29213; test: In vivo protection assay, S. aureus infection of neutropenic mice (survival); design: species or system Swiss mice; details: 48 h
# [4] = test system: MRSA (IHMA #510059); test: MIC, broth microdilution (susceptibility method), MRSA; format: cell-based; details: Staphylococcus aureus, read-out: MIC MRSA (IHMA #510059)
# Experimental: as §1
# (§2) Minimum inhibitory concentrations (MICs) were determined by broth microdilution according to CLSI guidelines (CLSI, M100-20^1, M7-A8^2, M27-A3^3). The compounds were tested in the range from […]. Colonies were taken directly from a second-pass culture plate and prepared to a suspension equivalent to the 0.5 McFarland standard using normal saline. […] The panels were incubated at 35° C. for 16 to 20 hours before reading the MIC endpoints. The compounds of Examples 4 to 8 were dissolved in DMSO to make the initial solutions of 5120 μg/ml. These solutions were diluted 1:10 in sterile water to a stock solution of 512 μg/ml. The stock solutions were further diluted into the appropriate broth medium for the sequential dilutions used in the broth microdilution panels. S. pneumoniae was tested in Mueller Hinton (MH) broth with 3% lysed horse blood and C. albicans was tested in RPMI-1640 medium. All other organisms were tested in MH broth.
# [5] = test system: MSSA (IHMA #555189); test: MIC, broth microdilution (susceptibility method), MSSA; format: cell-based; details: Staphylococcus aureus, read-out: MIC MSSA (IHMA #555189)
# Experimental: as §1, §2
# [6] = test system: E. coli (ATCC 25922); test: MIC, broth microdilution (susceptibility method), E. coli; format: cell-based; details: Escherichia coli, ATCC25922, MH broth
# Experimental: as §2
# [7] = test system: E. faecalis (ATCC 29212); test: MIC, broth microdilution (susceptibility method), E. faecalis; format: cell-based; details: Enterococcus faecalis, ATCC29212, MH broth
# Experimental: as §2
# [8] = test system: S. pneumoniae (ATCC 49619); test: MIC, broth microdilution (susceptibility method), S. pneumoniae; format: cell-based; details: Streptococcus pneumoniae, ATCC49619, MH broth with 3% lysed horse blood
# Experimental: as §2
# [9] = test system: C. albicans (ATCC 90028); test: MIC, broth microdilution (susceptibility method), C. albicans; format: cell-based; details: Candida albicans, ATCC90028, RPMI-1640 medium
# Experimental: as §2
# [10] = molecular target: HSA (Homo sapiens (Human), UniProt P02768); test: HSA binding analysis using a chiral HSA column; format: in vitro ADME
# Chain of HSA (P02768 25-609): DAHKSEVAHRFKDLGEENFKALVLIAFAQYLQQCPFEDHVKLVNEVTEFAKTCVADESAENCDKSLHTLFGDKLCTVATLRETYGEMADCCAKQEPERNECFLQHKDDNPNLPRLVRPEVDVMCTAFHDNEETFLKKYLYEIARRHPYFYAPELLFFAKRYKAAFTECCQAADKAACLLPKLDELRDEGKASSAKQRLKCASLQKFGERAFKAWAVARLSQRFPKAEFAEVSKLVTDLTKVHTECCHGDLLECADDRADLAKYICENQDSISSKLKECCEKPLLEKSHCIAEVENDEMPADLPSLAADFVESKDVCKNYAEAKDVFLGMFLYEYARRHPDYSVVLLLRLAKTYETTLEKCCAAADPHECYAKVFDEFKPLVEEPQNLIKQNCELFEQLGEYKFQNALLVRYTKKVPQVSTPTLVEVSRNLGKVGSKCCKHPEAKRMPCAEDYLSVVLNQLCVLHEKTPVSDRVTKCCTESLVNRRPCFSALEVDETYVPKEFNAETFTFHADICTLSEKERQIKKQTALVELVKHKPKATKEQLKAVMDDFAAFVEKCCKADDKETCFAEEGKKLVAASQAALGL
# Experimental: The test system used in this analysis was an HSA chiral column.
# A 10 mM stock solution of Example 7 (molecular weight of 475.49 and HPLC purity 86.3%) was prepared by dissolving 1.8 mg of a compound of Example 7 in 0.327 ml of DMSO. The compound of Example 7 at a concentration of 100 μM was prepared by diluting the stock solution at 10 mM in DMSO with Potassium phosphate buffer pH 7.0.
# The relationship between the retention time (Tr) and percentage of protein binding (PB %) depended on the dead time (T0) and the capacity factor (k′): PB %=[k′/(k′+1)]*100 • where k′=(Tr−T0)/T0 Results
# [11] = rats, intravenous; cited from earlier work
# [12] = ca-MHB supplemented with 80% human serum, read-out: MIC S. aureus CIP 54.146 in the presence of 80% human serum
# [13] = ca-MHB, read-out: MIC S. aureus CIP 54.146
smiles,measurement,setting,value
"CCc1cc(O)c(Oc2ccc(C(=O)N3CCNC(=O)C3)cc2F)cc1F [Example 1, 4-[4-(4-Ethyl-5-fluoro-2-hydroxyphenoxy)-3-fluorobenzoyl]piperazin-2-one]",IC50,[1],16 nM
same,MIC,[2]; [12],0.5 µg/mL
same,MIC,[2]; [13],0.25 µg/mL
same,Protection of infected mice (survival rate),"[3]; single oral administration, 100 and 200 mg/kg",able to protect mice against bacterial dissemination
same,Protection of infected mice (survival rate),"[3]; single subcutaneous administration, 6.25 and 12.5 mg/kg",able to protect mice against bacterial dissemination
"CCc1ccc(Oc2ccc(C(=O)N3CCNC(=O)C3)cc2F)c(O)c1 [Example 2, 4-[4-(4-Ethyl-2-hydroxyphenoxy)-3-fluorobenzoyl]piperazin-2-one]",IC50,[1],29 nM
same,MIC,[2]; [12],1 µg/mL
same,MIC,[2]; [13],1 µg/mL
"CCOC(=O)Oc1cc(CC)c(F)cc1Oc1ccc(C(=O)N2CCNC(=O)C2)cc1F [Example 3, 4-Fluoro-2-{2-fluoro-4-[(3-oxopiperazin-1-yl)carbonyl]phenoxy}-5-ethylphenyl ethyl carbonate]",IC50,[1],5000 nM
"CCc1cc(O)c(Oc2ccc(C(=O)N3CC(=O)NC(=O)C3)cc2F)cc1F [Example 4, 4-[4-(4-Ethyl-5-fluoro-2-hydroxyphenoxy)-3-fluorobenzoyl]piperazine-2,6-dione]",MIC,"[4]; broth microdilution, MH broth",32 µg/mL
same,MIC,"[5]; broth microdilution, MH broth",4 µg/mL
"CCc1cc(O)c(Oc2ccc(C(=O)N3CCN(C)C(=O)C3)cc2F)cc1F [Example 5, 4-[4-(4-Ethyl-5-fluoro-2-hydroxyphenoxy)-3-fluorobenzoyl]-1-methylpiperazin-2-one]",MIC,"[4]; broth microdilution, MH broth",1 µg/mL
same,MIC,"[5]; broth microdilution, MH broth",0.015 µg/mL
"CCc1cc(O)c(Oc2ccc(C(=O)N3CCN(CC(N)=O)C(=O)C3)cc2F)cc1F [Example 6, 2-[4-(4-(4-Ethyl-5-fluoro-2-hydroxyphenoxy)-3-fluorobenzoyl]-2-oxopiperazin-1-yl)acetamide]",MIC,"[4]; broth microdilution, MH broth",4 µg/mL
same,MIC,"[5]; broth microdilution, MH broth",0.25 µg/mL
"CCc1cc(O)c(Oc2ccc(C(=O)N3CCN(CN4CCOCC4)C(=O)C3)cc2F)cc1F [Example 7, 4-[4-(4-Ethyl-5-fluoro-2-hydroxyphenoxy)-3-fluorobenzoyl]-1-(morpholinomethyl)piperazin-2-one]",MIC,[4],0.06 µg/mL
same,MIC,[5],0.06 µg/mL
same,MIC,[6],4 µg/mL
same,MIC,[7],64 µg/mL
same,MIC,[8],> 128 µg/mL
same,MIC,[9],> 128 µg/mL
same,Binding to HSA (in words),[10],moderate binding
same,HSA Binding (%),"[10]; 37° C., pH 7.0, 100 μM",74.9%
same,C (average),[10]; average of 3 tests,0.75
same,k′ (average),[10]; average of 3 tests,2.987
same,k′ (capacity factor),[10]; single test,2.987 and 2.981 and 2.993
"CCc1cc(O)c(Oc2ccc(C(=O)N3CCNC(=O)C3C)cc2F)cc1F (centres unmarked) [Example 8, 4-[4-(4-Ethyl-5-fluoro-2-hydroxyphenoxy)-3-fluorobenzoyl]-3-methyl piperazin-2-one]",MIC,"[4]; broth microdilution, MH broth",1 µg/mL
same,MIC,"[5]; broth microdilution, MH broth",0.06 µg/mL
Oc1cc(Cl)ccc1Oc1ccc(Cl)cc1Cl [Triclosan],LD50,[11],29 mg/kg
